The results in this text go back to the NIST ThermoML archive (doi:10.1016/j.jct.2016.09.038).

Numbers after ± are expanded uncertainties.

Series [1] in a line: Molar enthalpy of transition or fusion. As to conditions: Crystal; DSC.
For series [2] the following is noted: Crystal; DTA.

For the molecule `CC(C)(C)[C@H](O)[C@H](Cc1ccc(Cl)cc1)n1cncn1` [2S,3S-Paclobutrazol], the “Molar enthalpy of transition or fusion” value in series [1] came out at 9.05 ± 0.263 kcal/mol. In series [2], the Normal melting temperature is 160.66 ± 1.1 °C.
